Data from the supplement of paper PMC10307832.

Assays:
Experiment in all cases: relative viability (nuclei count vs DMSO), 5 days (fraction); higher = more cells survive
COR-L23 = system: COR-L23
Outline: (§1)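 Lung cancer cell lines in 1536-well plates were dosed by pin tool the day after seeding, either with one drug alone or with a fixed anchor-drug dose plus five library-drug doses (not always all listed) in √10 steps. After 5 days, cells were fixed and their nuclei stained in one step (final 0.05% Triton X-100, 1% formaldehyde, 1 ug/ml Hoechst), then counted on 4× images. Relative viability is the nuclei count in treated wells divided by that in vehicle wells. Values are medians of duplicate plates.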

NCI-H1975 = system: NCI-H1975
Outline: as §1

201T = system: 201T
Outline: as §1

HCC-827 = system: HCC-827
Outline: as §1

HCC-15 = system: HCC-15
Outline: as §1

EKVX = system: EKVX
Outline: as §1

NCI-H596 = system: NCI-H596
Outline: as §1

NCI-H1437 = system: NCI-H1437
Outline: as §1

NCI-H441 = system: NCI-H441
Outline: as §1

NCI-H1792 = system: NCI-H1792
Outline: as §1

NCI-H838 = system: NCI-H838
Outline: as §1

NCI-H650 = system: NCI-H650
Outline: as §1

A-427 = system: A-427
Outline: as §1

LK-2 = system: LK-2
Outline: as §1

SW 900 = system: SW 900
Outline: as §1

NCI-H520 = system: NCI-H520
Outline: as §1

HCC-44 = system: HCC-44
Outline: as §1

NCI-H522 = system: NCI-H522
Outline: as §1

NCI-H23 = system: NCI-H23
Outline: as §1

SK-MES-1 = system: SK-MES-1
Outline: as §1

LCLC-103H = system: LCLC-103H
Outline: as §1

COR-L 105 = system: COR-L 105
Outline: as §1

HARA = system: HARA
Outline: as §1

NCI-H1666 = system: NCI-H1666
Outline: as §1

COc1cc(N2CCC(C(N)=O)CC2)ccc1Nc1nc(N)c(Cl)c(Nc2ccccc2S(=O)(=O)C(C)C)n1 [HG-5-88-01] + COc1cccc2cc(-c3nc([C@H]4CC[C@H](C(=O)O)CC4)n4ncnc(N)c34)[nH]c12 [OSI-027] (partner 0.5 µM)
relative viability (COR-L23; first compound 0.04 µM): 0.772
relative viability (COR-L23; first compound 0.1265 µM): 0.79
relative viability (COR-L23; first compound 0.4 µM): 0.646
relative viability (COR-L23; first compound 1.265 µM): 0.55
relative viability (COR-L23; first compound 4 µM): 0.505
relative viability (NCI-H1975; first compound 0.04 µM): 0.711
relative viability (NCI-H1975; first compound 0.1265 µM): 0.803
relative viability (NCI-H1975; first compound 0.4 µM): 0.631
relative viability (NCI-H1975; first compound 1.265 µM): 0.461
relative viability (NCI-H1975; first compound 4 µM): 0.19
relative viability (201T; first compound 0.04 µM): 0.84
relative viability (201T; first compound 0.1265 µM): 0.745
relative viability (201T; first compound 0.4 µM): 0.428
relative viability (201T; first compound 1.265 µM): 0.668
relative viability (201T; first compound 4 µM): 0.303
relative viability (HCC-827; first compound 0.04 µM): 0.819
relative viability (HCC-827; first compound 0.1265 µM): 0.89
relative viability (HCC-827; first compound 0.4 µM): 0.8
relative viability (HCC-827; first compound 1.265 µM): 0.564
relative viability (HCC-827; first compound 4 µM): 0.406
relative viability (HCC-15; first compound 0.04 µM): 0.683
relative viability (HCC-15; first compound 0.1265 µM): 0.8
relative viability (HCC-15; first compound 0.4 µM): 0.539
relative viability (HCC-15; first compound 1.265 µM): 0.547
relative viability (HCC-15; first compound 4 µM): 0.326
relative viability (EKVX; first compound 0.04 µM): 0.714
relative viability (EKVX; first compound 0.1265 µM): 0.719
relative viability (EKVX; first compound 0.4 µM): 0.724
relative viability (EKVX; first compound 4 µM): 0.535
relative viability (NCI-H596; first compound 0.04 µM): 0.61
relative viability (NCI-H596; first compound 0.1265 µM): 0.693
relative viability (NCI-H596; first compound 0.4 µM): 0.729
relative viability (NCI-H596; first compound 1.265 µM): 0.59
relative viability (NCI-H596; first compound 4 µM): 0.393
relative viability (NCI-H1437; first compound 0.04 µM): 0.836
relative viability (NCI-H1437; first compound 0.1265 µM): 0.92
relative viability (NCI-H1437; first compound 0.4 µM): 0.887
relative viability (NCI-H1437; first compound 1.265 µM): 0.735
relative viability (NCI-H1437; first compound 4 µM): 0.83
relative viability (NCI-H441; first compound 0.04 µM): 0.787
relative viability (NCI-H441; first compound 0.1265 µM): 0.77
relative viability (NCI-H441; first compound 0.4 µM): 0.848
relative viability (NCI-H441; first compound 1.265 µM): 0.437
relative viability (NCI-H441; first compound 4 µM): 0.421
relative viability (NCI-H1792; first compound 0.04 µM): 0.809
relative viability (NCI-H1792; first compound 0.1265 µM): 0.823
relative viability (NCI-H1792; first compound 0.4 µM): 0.794
relative viability (NCI-H1792; first compound 4 µM): 0.574
relative viability (NCI-H838; first compound 0.04 µM): 0.359
relative viability (NCI-H838; first compound 0.1265 µM): 0.333
relative viability (NCI-H838; first compound 0.4 µM): 0.238
relative viability (NCI-H838; first compound 1.265 µM): 0.247
relative viability (NCI-H838; first compound 4 µM): 0.173
relative viability (NCI-H650; first compound 0.04 µM): 0.492
relative viability (NCI-H650; first compound 0.1265 µM): 0.476
relative viability (NCI-H650; first compound 0.4 µM): 0.431
relative viability (NCI-H650; first compound 1.265 µM): 0.443
relative viability (NCI-H650; first compound 4 µM): 0.319
relative viability (A-427; first compound 0.04 µM): 0.441
relative viability (A-427; first compound 0.1265 µM): 0.533
relative viability (A-427; first compound 0.4 µM): 0.524
relative viability (A-427; first compound 1.265 µM): 0.416
relative viability (A-427; first compound 4 µM): 0.283
relative viability (LK-2; first compound 0.04 µM): 0.173
relative viability (LK-2; first compound 0.1265 µM): 0.189
relative viability (LK-2; first compound 0.4 µM): 0.15
relative viability (LK-2; first compound 1.265 µM): 0.173
relative viability (LK-2; first compound 4 µM): 0.175
relative viability (SW 900; first compound 0.04 µM): 0.505
relative viability (SW 900; first compound 0.1265 µM): 0.646
relative viability (SW 900; first compound 0.4 µM): 0.6
relative viability (SW 900; first compound 1.265 µM): 0.57
relative viability (SW 900; first compound 4 µM): 0.381
relative viability (NCI-H520; first compound 0.04 µM): 0.23
relative viability (NCI-H520; first compound 0.1265 µM): 0.258
relative viability (NCI-H520; first compound 0.4 µM): 0.236
relative viability (NCI-H520; first compound 1.265 µM): 0.289
relative viability (NCI-H520; first compound 4 µM): 0.221
relative viability (HCC-44; first compound 0.04 µM): 0.491
relative viability (HCC-44; first compound 0.1265 µM): 0.507
relative viability (HCC-44; first compound 0.4 µM): 0.353
relative viability (HCC-44; first compound 1.265 µM): 0.392
relative viability (HCC-44; first compound 4 µM): 0.121
relative viability (NCI-H522; first compound 0.04 µM): 0.641
relative viability (NCI-H522; first compound 0.1265 µM): 0.634
relative viability (NCI-H522; first compound 0.4 µM): 0.66
relative viability (NCI-H522; first compound 1.265 µM): 0.579
relative viability (NCI-H522; first compound 4 µM): 0.61
relative viability (NCI-H23; first compound 0.04 µM): 0.511
relative viability (NCI-H23; first compound 0.1265 µM): 0.605
relative viability (NCI-H23; first compound 0.4 µM): 0.615
relative viability (NCI-H23; first compound 1.265 µM): 0.311
relative viability (NCI-H23; first compound 4 µM): 0.238
relative viability (SK-MES-1; first compound 0.04 µM): 0.603
relative viability (SK-MES-1; first compound 0.1265 µM): 0.569
relative viability (SK-MES-1; first compound 0.4 µM): 0.492
relative viability (SK-MES-1; first compound 1.265 µM): 0.331
relative viability (SK-MES-1; first compound 4 µM): 0.4
relative viability (LCLC-103H; first compound 0.04 µM): 0.416
relative viability (LCLC-103H; first compound 0.1265 µM): 0.435
relative viability (LCLC-103H; first compound 0.4 µM): 0.381
relative viability (LCLC-103H; first compound 1.265 µM): 0.362
relative viability (LCLC-103H; first compound 4 µM): 0.405
relative viability (COR-L 105; first compound 0.04 µM): 0.616
relative viability (COR-L 105; first compound 0.1265 µM): 0.776
relative viability (COR-L 105; first compound 0.4 µM): 0.531
relative viability (COR-L 105; first compound 1.265 µM): 0.371
relative viability (COR-L 105; first compound 4 µM): 0.316
relative viability (HARA; first compound 0.04 µM): 0.378
relative viability (HARA; first compound 0.1265 µM): 0.578
relative viability (HARA; first compound 0.4 µM): 0.437
relative viability (HARA; first compound 1.265 µM): 0.121
relative viability (HARA; first compound 4 µM): 0.144
relative viability (NCI-H1666; first compound 0.04 µM): 0.866
relative viability (NCI-H1666; first compound 0.1265 µM): 0.859
relative viability (NCI-H1666; first compound 0.4 µM): 0.692
relative viability (NCI-H1666; first compound 1.265 µM): 0.605
relative viability (NCI-H1666; first compound 4 µM): 0.532
